{
  "source": "paper PMC7549094",
  "about": "(Journal of Medicinal Chemistry, 2020)",
  "key": {"[1]": {"experiment": "mouse plasma protein binding", "type": "in vitro ADME"}, "[2]": {"target": "rVMAT2 uptake (Rattus norvegicus, UniProt Q01827)", "sequence (Q01827 whole entry)": "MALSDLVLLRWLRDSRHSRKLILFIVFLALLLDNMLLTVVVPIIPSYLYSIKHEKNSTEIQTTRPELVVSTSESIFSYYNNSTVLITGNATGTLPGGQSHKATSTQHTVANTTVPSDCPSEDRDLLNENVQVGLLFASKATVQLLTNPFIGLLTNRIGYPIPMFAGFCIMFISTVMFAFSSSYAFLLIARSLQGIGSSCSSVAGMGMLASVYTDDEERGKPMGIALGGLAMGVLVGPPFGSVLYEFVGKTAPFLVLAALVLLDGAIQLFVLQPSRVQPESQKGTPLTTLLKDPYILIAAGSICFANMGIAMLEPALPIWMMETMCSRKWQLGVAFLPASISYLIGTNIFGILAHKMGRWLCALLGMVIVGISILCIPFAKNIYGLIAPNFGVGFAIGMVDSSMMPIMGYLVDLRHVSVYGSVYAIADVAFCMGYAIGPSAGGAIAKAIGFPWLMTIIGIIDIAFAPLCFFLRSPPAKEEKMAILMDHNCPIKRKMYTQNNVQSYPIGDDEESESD", "experiment": "receptor profile (Table S4)", "type": "biochemical"}, "[3]": {"experiment": "dissolution study and supersaturation stability in FASSIF", "type": "physicochemical"}, "[4]": {"test_system": "hr GABAA antag"}, "[5]": {"target": "hr 5-HTT (Homo sapiens, UniProt P31645)", "sequence (P31645 whole entry)": "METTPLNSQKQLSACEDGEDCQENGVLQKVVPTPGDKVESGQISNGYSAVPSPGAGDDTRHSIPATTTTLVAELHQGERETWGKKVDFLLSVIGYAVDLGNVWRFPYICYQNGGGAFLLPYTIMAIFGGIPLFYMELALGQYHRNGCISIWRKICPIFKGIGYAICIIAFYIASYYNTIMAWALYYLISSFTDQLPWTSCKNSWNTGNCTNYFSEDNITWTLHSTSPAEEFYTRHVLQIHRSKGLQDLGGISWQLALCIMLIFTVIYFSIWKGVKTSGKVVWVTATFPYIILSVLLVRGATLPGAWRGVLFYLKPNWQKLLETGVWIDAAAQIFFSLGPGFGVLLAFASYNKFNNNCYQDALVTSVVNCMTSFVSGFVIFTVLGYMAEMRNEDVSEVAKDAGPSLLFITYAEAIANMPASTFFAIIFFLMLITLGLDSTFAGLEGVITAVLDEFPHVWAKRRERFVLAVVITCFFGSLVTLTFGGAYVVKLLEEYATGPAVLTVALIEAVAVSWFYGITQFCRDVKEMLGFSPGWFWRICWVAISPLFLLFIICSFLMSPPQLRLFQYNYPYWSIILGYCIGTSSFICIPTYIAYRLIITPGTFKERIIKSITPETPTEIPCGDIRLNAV", "experiment": "receptor profile (Table S4)", "type": "binding"}, "[6]": {"conditions": "microsomal extraction ratio, 1 h incubation in microsomes"}, "[7]": {"target": "T1, rr AR ag (Rattus norvegicus, UniProt P15207)", "T1 sequence (P15207 1-902)": "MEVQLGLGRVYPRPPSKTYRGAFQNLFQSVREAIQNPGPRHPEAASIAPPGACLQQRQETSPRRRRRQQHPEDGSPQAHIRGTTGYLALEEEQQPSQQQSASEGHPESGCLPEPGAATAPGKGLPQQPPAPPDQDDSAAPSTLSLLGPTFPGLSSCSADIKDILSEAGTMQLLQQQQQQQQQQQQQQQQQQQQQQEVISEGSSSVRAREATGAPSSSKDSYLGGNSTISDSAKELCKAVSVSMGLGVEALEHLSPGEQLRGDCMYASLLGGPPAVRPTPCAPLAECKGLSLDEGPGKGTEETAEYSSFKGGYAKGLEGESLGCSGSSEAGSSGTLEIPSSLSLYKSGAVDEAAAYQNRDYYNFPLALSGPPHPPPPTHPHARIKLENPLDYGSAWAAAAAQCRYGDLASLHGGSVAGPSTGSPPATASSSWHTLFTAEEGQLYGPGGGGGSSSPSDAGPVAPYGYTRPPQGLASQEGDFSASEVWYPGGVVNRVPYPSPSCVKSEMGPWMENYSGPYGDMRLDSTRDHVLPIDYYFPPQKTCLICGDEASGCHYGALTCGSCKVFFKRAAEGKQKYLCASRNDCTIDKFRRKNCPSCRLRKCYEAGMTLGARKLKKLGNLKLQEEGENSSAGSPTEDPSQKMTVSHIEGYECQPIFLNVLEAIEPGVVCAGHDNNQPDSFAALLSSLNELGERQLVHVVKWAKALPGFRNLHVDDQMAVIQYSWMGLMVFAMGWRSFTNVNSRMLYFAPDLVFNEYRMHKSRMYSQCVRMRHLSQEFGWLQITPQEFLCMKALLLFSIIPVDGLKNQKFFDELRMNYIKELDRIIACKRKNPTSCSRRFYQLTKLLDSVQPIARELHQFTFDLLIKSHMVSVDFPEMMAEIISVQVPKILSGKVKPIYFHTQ", "experiment": "receptor profile (Table S4)", "type": "biochemical"}, "[8]": {"experiment": "metabolite profile in monkey hepatocytes", "type": "in vitro ADME", "conditions": "10 μM of 1 for 4 h, UV 250 nm, normalized to largest peak"}, "[9]": {"target": "T2, hr Al2A antag (Homo sapiens, UniProt P08913)", "T2 sequence (P08913 1-465)": "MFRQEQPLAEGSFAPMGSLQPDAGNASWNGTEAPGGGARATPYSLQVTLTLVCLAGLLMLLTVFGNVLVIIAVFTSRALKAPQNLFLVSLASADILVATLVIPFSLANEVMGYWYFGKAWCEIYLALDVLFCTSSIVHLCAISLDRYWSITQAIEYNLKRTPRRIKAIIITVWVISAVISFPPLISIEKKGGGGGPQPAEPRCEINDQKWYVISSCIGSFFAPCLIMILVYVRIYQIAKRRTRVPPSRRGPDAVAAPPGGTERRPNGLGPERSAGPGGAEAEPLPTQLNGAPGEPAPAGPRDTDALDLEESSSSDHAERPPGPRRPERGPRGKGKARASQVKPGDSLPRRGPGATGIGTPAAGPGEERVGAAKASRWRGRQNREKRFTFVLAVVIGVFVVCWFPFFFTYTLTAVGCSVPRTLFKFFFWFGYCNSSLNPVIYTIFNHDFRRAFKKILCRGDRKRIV", "experiment": "receptor profile (Table S4)", "type": "biochemical"}, "[10]": {"target": "hr H1 (Homo sapiens, UniProt P35367)", "sequence (P35367 whole entry)": "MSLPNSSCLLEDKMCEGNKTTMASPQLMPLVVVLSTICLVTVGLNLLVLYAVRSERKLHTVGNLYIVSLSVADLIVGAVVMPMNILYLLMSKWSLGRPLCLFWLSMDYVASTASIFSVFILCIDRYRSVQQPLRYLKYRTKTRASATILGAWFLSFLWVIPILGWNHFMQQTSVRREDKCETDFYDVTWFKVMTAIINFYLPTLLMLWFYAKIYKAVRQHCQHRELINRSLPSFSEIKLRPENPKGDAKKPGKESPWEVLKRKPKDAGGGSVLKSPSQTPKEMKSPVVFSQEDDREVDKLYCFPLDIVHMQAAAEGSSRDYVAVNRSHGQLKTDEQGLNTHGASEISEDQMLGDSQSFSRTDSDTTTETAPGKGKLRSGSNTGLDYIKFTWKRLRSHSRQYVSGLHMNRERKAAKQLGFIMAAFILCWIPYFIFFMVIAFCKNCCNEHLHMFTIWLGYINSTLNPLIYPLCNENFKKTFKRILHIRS", "experiment": "receptor profile (Table S4)", "type": "binding"}, "[11]": {"test_system": "h Nic(cns)"}, "[12]": {"test_system": "h PDE3"}, "[13]": {"conditions": "microsomal extraction ratio, 1 h incubation in microsomes", "remark": "listed apart in the source"}, "[14]": {"experiment": "brain/plasma exposure in mice", "type": "in vivo", "conditions": "mouse, brain, read-out: brain/plasma AUC ratio"}, "[15]": {"target": "hr PXR ag (Homo sapiens, UniProt O75469)", "sequence (O75469 whole entry)": "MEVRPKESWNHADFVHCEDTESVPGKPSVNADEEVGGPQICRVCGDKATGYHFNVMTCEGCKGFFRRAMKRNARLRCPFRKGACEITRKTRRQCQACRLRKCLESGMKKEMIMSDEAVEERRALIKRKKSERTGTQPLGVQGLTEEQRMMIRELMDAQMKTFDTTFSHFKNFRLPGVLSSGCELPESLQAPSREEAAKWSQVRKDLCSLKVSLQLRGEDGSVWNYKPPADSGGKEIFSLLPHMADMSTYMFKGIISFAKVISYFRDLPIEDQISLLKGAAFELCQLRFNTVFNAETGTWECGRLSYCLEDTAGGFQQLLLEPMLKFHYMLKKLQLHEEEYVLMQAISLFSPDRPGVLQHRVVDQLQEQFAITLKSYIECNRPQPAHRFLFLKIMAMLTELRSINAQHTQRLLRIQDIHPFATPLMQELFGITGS", "experiment": "receptor profile (Table S4)", "conditions": "hr PXR ag"}, "[16]": {"target": "PXR (Homo sapiens, UniProt O75469)", "sequence (O75469 whole entry)": "as above", "experiment": "receptor profile (Table S4)", "conditions": "human"}, "[17]": {"target": "T3, purified L. donovani proteasome (Leishmania donovani, UniProt A0A3Q8IIY4+A0A3S7XA80)", "T3 sequence (A0A3Q8IIY4 100-302)": "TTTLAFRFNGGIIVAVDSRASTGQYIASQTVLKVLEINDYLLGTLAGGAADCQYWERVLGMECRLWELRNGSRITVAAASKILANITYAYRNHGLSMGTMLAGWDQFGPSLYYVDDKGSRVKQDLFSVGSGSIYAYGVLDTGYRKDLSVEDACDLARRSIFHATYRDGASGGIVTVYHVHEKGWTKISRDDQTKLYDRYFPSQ", "T3 sequence (A0A3S7XA80 1-206)": "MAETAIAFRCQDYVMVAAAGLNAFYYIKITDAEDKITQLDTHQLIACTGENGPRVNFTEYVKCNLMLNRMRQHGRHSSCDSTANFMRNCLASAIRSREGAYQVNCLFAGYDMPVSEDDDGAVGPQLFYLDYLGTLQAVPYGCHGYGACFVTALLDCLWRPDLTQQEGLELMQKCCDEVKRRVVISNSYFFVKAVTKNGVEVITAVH", "experiment": "chymotrypsin-like activity of purified L. donovani proteasome", "type": "biochemical", "conditions": "half-maximum inhibition of chymotrypsin-like activity of purified L. donovani proteasome; mean, n = 4 technical replicates"}},
  "note": "Where two headings read alike, the source gives them in different places.",
  "data": [
    {"smiles": "Cc1nc(C)c(C(=O)Nc2ccc(F)c(-c3nc4ncc(-c5ncccc5C)cn4n3)c2)o1", "note": "[compound 1, N-(4-Fluoro-3-(6-(3-methylpyridin-2-yl)-[1,2,4]triazolo[1,5-a]pyrimidin-2-yl)phenyl)-2,4-dimethyloxazole-5-carboxamide]", "values": [
      {"measurement": "fraction unbound", "setting": "[1]", "value": 0.056},
      {"measurement": "EC50/IC50", "setting": "[2]; rVMAT2 uptake", "value": 3.9, "unit": "µM"},
      {"measurement": "inhibition at 10 µM", "setting": "[2]; read-out: % inh/act @ 10 µM", "value": 64, "unit": "%"},
      {"measurement": "inhibition at 30 µM", "setting": "[2]; read-out: % inh/act @ 30 µM", "value": 78, "unit": "%"},
      {"measurement": "inhibition at 10 µM", "setting": "[2]; read-out: VMAT2 inhibition", "value": 61, "unit": "%"},
      {"measurement": "concentration in FASSIF (supersaturation)", "setting": "[3]; fumarate cocrystal of 1, FASSIF, at 16 min", "value": 73, "unit": "µM"},
      {"measurement": "dissolution rate", "setting": "[3]; fumarate cocrystal of 1 vs free base of 2, Figure 1", "value": "significantly higher dissolution rate"},
      {"measurement": "% inh/act @ 10 µM", "setting": "[4]", "value": -5, "unit": "%"},
      {"measurement": "% inh/act @ 30 µM", "setting": "[4]", "value": -4, "unit": "%"},
      {"measurement": "EC50/IC50", "setting": "[5]; hr 5-HTT", "value": "> 30", "unit": "µM"},
      {"measurement": "inhibition at 10 µM", "setting": "[5]; read-out: % inh/act @ 10 µM", "value": 17, "unit": "%"},
      {"measurement": "inhibition at 30 µM", "setting": "[5]; read-out: % inh/act @ 30 µM", "value": 12, "unit": "%"},
      {"measurement": "ER dog", "setting": "[6]", "value": "< 0.24"},
      {"measurement": "inhibition at 10 µM", "setting": "[7]; read-out: % inh/act @ 10 µM", "value": 1, "unit": "%"},
      {"measurement": "inhibition at 30 µM", "setting": "[7]; read-out: % inh/act @ 30 µM", "value": 0, "unit": "%"},
      {"measurement": "EC50/IC50", "setting": "[7]; rr AR ag", "value": "> 30", "unit": "µM"},
      {"measurement": "abundance monkey", "setting": "[8]", "value": "+++ (+++ > 75%)"},
      {"measurement": "EC50/IC50", "setting": "[9]; hr Al2A antag", "value": "> 30", "unit": "µM"},
      {"measurement": "inhibition at 10 µM", "setting": "[9]; read-out: % inh/act @ 10 µM", "value": 20, "unit": "%"},
      {"measurement": "inhibition at 30 µM", "setting": "[9]; read-out: % inh/act @ 30 µM", "value": 22, "unit": "%"},
      {"measurement": "EC50/IC50", "setting": "[10]; hr H1", "value": "> 30", "unit": "µM"},
      {"measurement": "inhibition at 10 µM", "setting": "[10]; read-out: % inh/act @ 10 µM", "value": 10, "unit": "%"},
      {"measurement": "inhibition at 30 µM", "setting": "[10]; read-out: % inh/act @ 30 µM", "value": 24, "unit": "%"},
      {"measurement": "% inh/act @ 10 µM", "setting": "[11]", "value": 20, "unit": "%"},
      {"measurement": "% inh/act @ 30 µM", "setting": "[11]", "value": 24, "unit": "%"},
      {"measurement": "% inh/act @ 10 µM", "setting": "[12]", "value": 6, "unit": "%"},
      {"measurement": "% inh/act @ 30 µM", "setting": "[12]", "value": 4, "unit": "%"},
      {"measurement": "ER mouse", "setting": "[13]", "value": "< 0.21"},
      {"measurement": "Kp", "setting": "[14]", "value": 0.03},
      {"measurement": "EC50/IC50", "setting": "[15]", "value": "> 30", "unit": "µM"},
      {"measurement": "inhibition at 10 µM", "setting": "[16]", "value": 0, "unit": "%"},
      {"measurement": "IC50", "setting": "[17]", "value": 0.04, "unit": "µM"}
    ]}
  ]
}
